Results on 45 molecules are retold here after ChEMBL document CHEMBL1221311, “The synthesis and structure-activity relationship of 4-benzimidazolyl-piperidinylcarbonyl-piperidine analogs as histamine H3 antagonists” (Bioorg Med Chem Lett, 2010).

Each structure is given as a SMILES string. Where only a bound is given, the exact number is not on record here.

One data set deals with Histamine H3 receptor (Cavia porcellus, UniProt Q9JI35). Put plainly: Displacement of [3H]Nalpha-methylhistamine from histamine H3 receptor in guinea pig brain. (Displacement assays read how much labelled ligand stays bound in the presence of the test substance.)
Histamine H3 receptor, sequence (Q9JI35 whole entry): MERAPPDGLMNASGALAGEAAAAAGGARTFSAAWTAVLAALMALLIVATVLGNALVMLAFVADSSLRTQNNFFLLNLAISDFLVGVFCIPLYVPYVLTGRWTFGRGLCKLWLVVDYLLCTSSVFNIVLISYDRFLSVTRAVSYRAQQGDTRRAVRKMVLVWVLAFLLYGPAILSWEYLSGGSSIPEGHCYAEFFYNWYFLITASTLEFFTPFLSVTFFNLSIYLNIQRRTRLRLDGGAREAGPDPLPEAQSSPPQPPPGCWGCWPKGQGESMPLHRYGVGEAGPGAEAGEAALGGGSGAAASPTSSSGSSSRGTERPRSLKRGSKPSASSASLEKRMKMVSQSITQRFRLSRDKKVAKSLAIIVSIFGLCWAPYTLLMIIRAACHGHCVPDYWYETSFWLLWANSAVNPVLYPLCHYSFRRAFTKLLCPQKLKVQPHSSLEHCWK
Another data set addresses Cytochrome P450 3A4 (Homo sapiens, UniProt P08684). In words: Inhibition of CYP3A4 in human liver microsomes. The format is ADME, Microsome. (Microsomes from liver hold many membrane-bound enzymes, among them those of drug oxidation.)
Another data set deals with Cytochrome P450 2D6 (Homo sapiens, UniProt P10635). Put plainly: Inhibition of CYP2D6 in human liver microsomes. The format is ADME, Microsome.
Cytochrome P450 2D6, sequence (P10635 whole entry): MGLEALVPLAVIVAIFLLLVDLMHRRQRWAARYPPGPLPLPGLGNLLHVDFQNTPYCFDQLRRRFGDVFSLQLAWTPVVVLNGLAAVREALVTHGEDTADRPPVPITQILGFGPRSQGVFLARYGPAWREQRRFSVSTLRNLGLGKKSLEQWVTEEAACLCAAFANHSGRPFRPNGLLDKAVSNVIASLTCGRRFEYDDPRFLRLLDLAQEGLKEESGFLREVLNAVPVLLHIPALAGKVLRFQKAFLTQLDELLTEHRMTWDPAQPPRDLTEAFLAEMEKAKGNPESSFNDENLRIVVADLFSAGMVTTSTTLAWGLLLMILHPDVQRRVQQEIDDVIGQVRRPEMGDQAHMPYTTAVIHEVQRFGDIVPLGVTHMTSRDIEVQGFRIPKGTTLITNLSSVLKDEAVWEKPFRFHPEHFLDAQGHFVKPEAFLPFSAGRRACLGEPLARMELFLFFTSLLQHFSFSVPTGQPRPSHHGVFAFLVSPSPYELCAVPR
The target of data set [1] is Histamine H3 receptor (Cavia porcellus) (UniProt Q9JI35). In words: Displacement of [3H]Nalpha-methylhistamine from histamine H3 receptor in guinea pig brain at 1 uM.
Histamine H3 receptor (Cavia porcellus), sequence (Q9JI35 whole entry): as the sequence (Q9JI35 whole entry) above
Data set [2] in a line: AUC in rat at 10 mg/kg, po. The conditions noted are these: plasma. In kind it is ADME, organism-based. Details: dose 10 mg/kg, route oral.
The target in the next data set is hERG (KCNH2) (Homo sapiens, UniProt Q12809). Put plainly: Inhibition of human ERG at 10 uM.
hERG (KCNH2), sequence (Q12809 whole entry): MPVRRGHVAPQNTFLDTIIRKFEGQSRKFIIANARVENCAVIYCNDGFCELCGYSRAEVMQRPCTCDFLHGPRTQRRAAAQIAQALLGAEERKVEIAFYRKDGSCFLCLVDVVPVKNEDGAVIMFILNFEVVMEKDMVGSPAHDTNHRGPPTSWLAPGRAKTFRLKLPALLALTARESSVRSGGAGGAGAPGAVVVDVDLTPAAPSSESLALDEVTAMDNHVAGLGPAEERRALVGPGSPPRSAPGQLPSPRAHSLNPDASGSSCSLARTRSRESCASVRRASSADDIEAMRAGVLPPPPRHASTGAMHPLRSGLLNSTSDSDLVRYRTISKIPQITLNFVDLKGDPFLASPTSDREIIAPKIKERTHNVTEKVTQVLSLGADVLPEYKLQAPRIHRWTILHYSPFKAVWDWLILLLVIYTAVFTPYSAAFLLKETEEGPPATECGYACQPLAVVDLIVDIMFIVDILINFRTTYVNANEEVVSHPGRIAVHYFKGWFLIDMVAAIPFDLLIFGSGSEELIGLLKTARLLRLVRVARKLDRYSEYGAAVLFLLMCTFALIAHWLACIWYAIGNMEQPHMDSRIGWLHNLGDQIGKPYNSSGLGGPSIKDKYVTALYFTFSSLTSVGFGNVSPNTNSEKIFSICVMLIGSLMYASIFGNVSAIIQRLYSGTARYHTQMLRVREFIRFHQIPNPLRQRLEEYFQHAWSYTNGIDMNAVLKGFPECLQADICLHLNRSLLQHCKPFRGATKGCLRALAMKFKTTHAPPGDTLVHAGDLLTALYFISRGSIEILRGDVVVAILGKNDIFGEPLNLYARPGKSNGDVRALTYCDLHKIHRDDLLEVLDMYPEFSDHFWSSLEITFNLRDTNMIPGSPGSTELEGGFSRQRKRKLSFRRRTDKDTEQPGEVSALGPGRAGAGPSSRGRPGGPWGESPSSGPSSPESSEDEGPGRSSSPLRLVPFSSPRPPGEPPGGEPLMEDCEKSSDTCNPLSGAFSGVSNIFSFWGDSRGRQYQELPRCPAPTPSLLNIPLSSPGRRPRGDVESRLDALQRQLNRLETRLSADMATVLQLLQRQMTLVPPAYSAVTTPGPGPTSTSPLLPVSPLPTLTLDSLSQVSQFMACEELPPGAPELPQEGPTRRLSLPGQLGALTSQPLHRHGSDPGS
Data set [3] in a line: Clearance in human hepatocytes assessed per million cells. The format is ADME, cell-based, Liver, Hepatocyte.
A further data set deals with Cytochrome P450 2C9 (Homo sapiens, UniProt P11712). Put plainly: Inhibition of CYP2C9 in human liver microsomes. In kind it is ADME, Microsome.
Cytochrome P450 2C9, sequence (P11712 whole entry): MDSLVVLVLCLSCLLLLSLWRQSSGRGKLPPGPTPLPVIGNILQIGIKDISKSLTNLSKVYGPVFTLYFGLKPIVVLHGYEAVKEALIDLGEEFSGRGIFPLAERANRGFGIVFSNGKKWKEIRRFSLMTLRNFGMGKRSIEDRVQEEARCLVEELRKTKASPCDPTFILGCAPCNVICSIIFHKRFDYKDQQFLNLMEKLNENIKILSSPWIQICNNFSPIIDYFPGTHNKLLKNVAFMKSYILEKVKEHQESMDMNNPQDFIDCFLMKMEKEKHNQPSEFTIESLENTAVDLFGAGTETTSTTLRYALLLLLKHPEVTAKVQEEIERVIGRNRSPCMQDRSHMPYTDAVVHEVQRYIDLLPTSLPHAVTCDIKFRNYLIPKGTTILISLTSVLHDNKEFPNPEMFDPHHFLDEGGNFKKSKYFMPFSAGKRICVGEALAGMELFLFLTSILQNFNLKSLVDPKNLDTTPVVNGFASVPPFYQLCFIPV
The next data set has as its system Cavia porcellus. Put plainly: Antihypertensive activity in po dosed guinea pig assessed as inhibition of (R)-alpha-methylhistamine-induced hypertension. In kind it is functional.
The nature of data set [4]: Clearance in rat hepatocytes assessed per million cells. In kind it is ADME, cell-based, Liver, Hepatocyte.

Cytochrome P450 3A4, sequence (P08684 whole entry): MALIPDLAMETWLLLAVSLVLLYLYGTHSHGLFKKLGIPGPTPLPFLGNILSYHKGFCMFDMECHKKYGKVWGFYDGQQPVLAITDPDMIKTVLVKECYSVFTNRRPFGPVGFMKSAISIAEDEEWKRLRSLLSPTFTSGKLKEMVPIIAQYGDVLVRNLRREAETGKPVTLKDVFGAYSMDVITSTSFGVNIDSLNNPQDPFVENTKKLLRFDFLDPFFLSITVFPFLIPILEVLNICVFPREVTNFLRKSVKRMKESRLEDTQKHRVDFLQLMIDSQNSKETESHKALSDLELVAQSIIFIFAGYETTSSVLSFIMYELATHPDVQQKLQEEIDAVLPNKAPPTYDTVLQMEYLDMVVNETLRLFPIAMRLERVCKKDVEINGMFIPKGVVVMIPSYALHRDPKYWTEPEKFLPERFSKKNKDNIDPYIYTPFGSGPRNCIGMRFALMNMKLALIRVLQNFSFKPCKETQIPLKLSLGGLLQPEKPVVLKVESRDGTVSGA

`CCOCCn1c(=O)n(C2CCN(C(=O)C3CCN(Cc4ccncc4)CC3)CC2)c2ccccc21` returned a Ki at Histamine H3 receptor of 1.7 nM. Moreover, the IC50 against Cytochrome P450 3A4 was 13500 nM; at Cytochrome P450 2D6, over 20000 nM.

As for `O=C(C1CCN(Cc2ccncc2)CC1)N1CCC(n2c(=O)n(Cc3ccc(Cl)cc3)c3ccccc32)CC1`, the affinity at Histamine H3 receptor, expressed as Ki, was 0.9 nM. The IC50 on Cytochrome P450 3A4 was found to be 400 nM; against Cytochrome P450 2D6, 5800 nM.

In the case of `O=C(C1CCN(Cc2ccncc2)CC1)N1CCC(n2c(=O)n(CCOc3ccccc3)c3ccccc32)CC1`, affinity on Histamine H3 receptor was put at a Ki of 2 nM. Also, the half-maximal inhibitory concentration (IC50) against Cytochrome P450 3A4 is 9000 nM; at Cytochrome P450 2D6, 20000 nM.

For the molecule `COc1ccc(Cn2c(=O)n(C3CCN(C(=O)C4CCN(Cc5ccncc5)CC4)CC3)c3ccccc32)cc1`, the affinity at Histamine H3 receptor corresponds to a Ki of 0.25 nM. Further, the IC50 at Cytochrome P450 3A4 worked out at 400 nM; against Cytochrome P450 2D6, 20000 nM.

Molecule `O=C(CC1CCN(Cc2ccncc2)CC1)N1CCC(n2c(=O)[nH]c3ccccc32)CC1` came in with a Ki at Histamine H3 receptor of 180 nM.

Molecule `Cn1cc(CN2CCC(C(=O)N3CCC(n4c(=O)[nH]c5ccccc54)CC3)CC2)c2ccccc21` gave an inhibition in [1] of 30%.

Consider `O=C(C1CCN(Cc2cc[n+]([O-])cc2)CC1)N1CCC(n2c(=O)[nH]c3ccccc32)CC1`, for which, at Histamine H3 receptor, the Ki was 440 nM.

With `O=C(C1CCN(CCc2ccncc2)CC1)N1CCC(n2c(=O)[nH]c3ccccc32)CC1`, the Ki at Histamine H3 receptor turned out to be 537 nM.

Regarding `O=C(C1CCN(Cc2ccnc3ccccc23)CC1)N1CCC(n2c(=O)[nH]c3ccccc32)CC1`, at Histamine H3 receptor, the Ki stood at 681 nM.

In the case of `Cn1ccc(CN2CCC(C(=O)N3CCC(n4c(=O)[nH]c5ccccc54)CC3)CC2)c1`, in data set [1], the inhibition came to 42%.

Take `O=C(C1CCN(Cc2ccncc2)CC1)N1CCC(n2c(=O)n(CCO)c3ccccc32)CC1`: affinity on Histamine H3 receptor was put at a Ki of 0.95 nM. Moreover, the IC50 was over 30000 nM at Cytochrome P450 3A4 and over 20000 nM at Cytochrome P450 2D6.

`CN(C)CCn1c(=O)n(C2CCN(C(=O)C3CCN(Cc4ccncc4)CC3)CC2)c2ccccc21`: the AUC in data set [2] was determined as 0.24 µM·h. The molecule also yielded an inhibition at 10 µM against hERG (KCNH2) of under 10%. Moreover, the intrinsic metabolic clearance (hepatocyte CLint) in data set [3] and in [4] was under 10 µL/min/1e6 cells each time. Moreover, the values for the half-inhibitory concentration (IC50) against Cytochrome P450 2C9, against Cytochrome P450 3A4 and at Cytochrome P450 2D6 were over 20000 nM, over 30000 nM and 10500 nM, respectively. Besides, the 50% effective dose (ED50) with Cavia porcellus was under 0.3 mg/kg. At Histamine H3 receptor, this molecule showed a Ki of 0.2 nM.

`CC(C)OCCn1c(=O)n(C2CCN(C(=O)C3CCN(Cc4ccncc4)CC3)CC2)c2ccccc21` had a Ki at Histamine H3 receptor of 0.65 nM. Moreover, the IC50 is 6000 nM on Cytochrome P450 3A4 and over 20000 nM against Cytochrome P450 2D6.

With `O=C(C1CCN(Cc2ccncc2)CC1)N1CCC(O)(Cc2ccccc2)CC1`, on Histamine H3 receptor, the affinity corresponds to a Ki of 30 nM.

On Histamine H3 receptor, `O=C(C1CCN(Cc2ccncc2)CC1)N1CCN(Cc2cccc(Cl)c2)CC1` returned a Ki of 6.3 nM.

At Histamine H3 receptor, `O=C(C1CCN(Cc2ccncc2)CC1)N1CCN(C2CCCCC2)CC1` displayed a Ki of 14 nM.

`CN1CCN(C(=O)C2CCN(Cc3ccncc3)CC2)CC1` yielded a Ki at Histamine H3 receptor of 355 nM.

`O=C(C1CCN(Cc2ccncc2)CC1)N1CCN(Cc2ccccc2)CC1` had a Ki on Histamine H3 receptor of 28 nM.

On Histamine H3 receptor, `CCOCCCn1c(=O)n(C2CCN(C(=O)C3CCN(Cc4ccncc4)CC3)CC2)c2ccccc21` came in with a Ki of 0.8 nM. Also, the IC50 against Cytochrome P450 3A4 is 10600 nM; against Cytochrome P450 2D6, over 20000 nM.

`O=C(NCCc1ccccc1)c1cccc(CN2CCN(C(=O)C3CCN(Cc4ccncc4)CC3)CC2)c1` returned a Ki on Histamine H3 receptor of 27 nM.

With `O=C(C1CCN(Cc2ccsc2)CC1)N1CCC(n2c(=O)[nH]c3ccccc32)CC1`, the Ki at Histamine H3 receptor was 104 nM.

In turn, `O=C(C1CCN(Cc2ccncc2)CC1)N1CCC2(CC1)C(=O)NCN2c1ccccc1` displayed a Ki at Histamine H3 receptor of 20 nM.

`CC(c1ccncc1)N1CCC(C(=O)N2CCC(n3c(=O)[nH]c4ccccc43)CC2)CC1` (configuration not stated) had a Ki at Histamine H3 receptor of 20 nM.

With `O=C(c1ccccc1)C1CCN(C(=O)C2CCN(Cc3ccncc3)CC2)CC1`, the Ki on Histamine H3 receptor was determined as 17 nM.

Take `O=C(C1CCN(Cc2ccncc2)CC1)N1CCC(n2c(=O)n(CCN3CCOCC3)c3ccccc32)CC1`: the area under the curve (AUC) in [2] came to 0.24 µM·h. Also, on hERG (KCNH2), the inhibition at 10 µM was under 10%. Moreover, the hepatocyte CLint in [3] and in data set [4] was under 10 µL/min/1e6 cells in each case. Further, the values for the IC50 against Cytochrome P450 2C9, on Cytochrome P450 3A4 and on Cytochrome P450 2D6 were over 20000 nM, 30000 nM and over 20000 nM, respectively. In addition, the 50% effective dose (ED50) in the data set with Cavia porcellus was under 0.3 mg/kg. On Histamine H3 receptor, the Ki was found to be 0.5 nM.

For the molecule `O=C(C1CCN(Cc2cccnc2)CC1)N1CCC(n2c(=O)[nH]c3ccccc32)CC1`, the Ki at Histamine H3 receptor was found to be 174 nM.

The molecule `O=C(C1CCN(Cc2ccccn2)CC1)N1CCC(n2c(=O)[nH]c3ccccc32)CC1` had an inhibition in [1] of 40%.

For the molecule `CC(C)Cn1c(=O)n(C2CCN(C(=O)C3CCN(Cc4ccncc4)CC3)CC2)c2ccccc21`, the Ki at Histamine H3 receptor was determined as 0.4 nM. The IC50 against Cytochrome P450 3A4 was 1500 nM; on Cytochrome P450 2D6, 1900 nM.

On Histamine H3 receptor, `COc1cccc(Cn2c(=O)n(C3CCN(C(=O)C4CCN(Cc5ccncc5)CC4)CC3)c3ccccc32)c1` registered a Ki of 0.3 nM. Moreover, the IC50 was 200 nM on Cytochrome P450 3A4 and 5600 nM against Cytochrome P450 2D6.

At Histamine H3 receptor, `O=C(C1CCN(Cc2ccoc2)CC1)N1CCC(n2c(=O)[nH]c3ccccc32)CC1` showed a Ki of 204 nM.

The molecule `O=C(C1CCN(Cc2ccncc2)CC1)N1CCC(Cc2ccccc2)CC1` yielded a Ki on Histamine H3 receptor of 5.5 nM.

Molecule `O=C(C1CCN(Cc2ccncc2Cl)CC1)N1CCC(n2c(=O)[nH]c3ccccc32)CC1` gave an inhibition constant (Ki) at Histamine H3 receptor of 222 nM.

In turn, `O=C(C1CCN(Cc2ccncc2)CC1)N1CCC(n2c(=O)n(CCN3CCCCC3)c3ccccc32)CC1` displayed an AUC in data set [2] of 0.24 µM·h. The inhibition at 10 µM against hERG (KCNH2) was under 10%. Moreover, the hepatocyte CLint in data set [3] and in [4] was under 10 µL/min/1e6 cells each time. The results for the IC50 against Cytochrome P450 2C9, at Cytochrome P450 3A4 and against Cytochrome P450 2D6 were over 20000 nM, 30000 nM and 3700 nM, respectively. Besides, the ED50 with Cavia porcellus was under 0.3 mg/kg. Further, the Ki on Histamine H3 receptor is 0.15 nM.

Molecule `COCCCNC(=O)c1cccc(CN2CCN(C(=O)C3CCN(Cc4ccncc4)CC3)CC2)c1` showed a Ki on Histamine H3 receptor of 210 nM.

The molecule `Cn1c(=O)n(C2CCN(C(=O)C3CCN(Cc4ccncc4)CC3)CC2)c2ccccc21` registered a Ki on Histamine H3 receptor of 4.3 nM. Besides, the IC50 is 7500 nM at Cytochrome P450 3A4 and over 20000 nM against Cytochrome P450 2D6.

`O=C(C1CCN(Cc2ccncc2)CC1)N1CCC(n2c(=O)n(Cc3ccccc3)c3ccccc32)CC1` gave a Ki at Histamine H3 receptor of 0.2 nM. Moreover, the figures for the IC50 at Cytochrome P450 3A4 and on Cytochrome P450 2D6 were 400 nM and 9100 nM, respectively.

Turning to `O=C(C1CCN(Cc2ccncc2)CC1)N1CCC(n2c(=O)n(Cc3cccc(Cl)c3)c3ccccc32)CC1`, the affinity on Histamine H3 receptor, expressed as Ki, was 2 nM. Moreover, the IC50 against Cytochrome P450 3A4 came to 300 nM; against Cytochrome P450 2D6, 4200 nM.

As to `COCCn1c(=O)n(C2CCN(C(=O)C3CCN(Cc4ccncc4)CC3)CC2)c2ccccc21`, the Ki on Histamine H3 receptor is 2 nM. Besides, the IC50 is 11000 nM against Cytochrome P450 3A4 and over 20000 nM at Cytochrome P450 2D6.

In [2], `O=C(C1CCN(Cc2ccncc2)CC1)N1CCC(n2c(=O)[nH]c3ccccc32)CC1` displayed an AUC of 0.24 µM·h. This molecule also showed an inhibition at 10 µM at hERG (KCNH2) of under 10%. Also, the hepatocyte CLint in [3] and in data set [4] was under 10 µL/min/1e6 cells throughout. Further, the half-inhibitory concentration (IC50) on Cytochrome P450 2C9 is over 20000 nM; against Cytochrome P450 3A4, 9500 nM; against Cytochrome P450 2D6, over 20000 nM. Moreover, in the data set with Cavia porcellus, the ED50 is under 0.3 mg/kg. In addition, the affinity at Histamine H3 receptor, expressed as Ki, was 2 nM.

For the molecule `CN(C)CCCn1c(=O)n(C2CCN(C(=O)C3CCN(Cc4ccncc4)CC3)CC2)c2ccccc21`, the figures for the IC50 on Cytochrome P450 2C9, at Cytochrome P450 3A4 and against Cytochrome P450 2D6 were over 20000 nM, over 30000 nM and 1600 nM, respectively.

As for `O=C(C1CCN(Cc2ccncc2)CC1)N1CCC(n2c(=O)n(Cc3ccccc3Cl)c3ccccc32)CC1`, the affinity on Histamine H3 receptor, expressed as Ki, was 4.5 nM. Besides, the values for the IC50 against Cytochrome P450 3A4 and on Cytochrome P450 2D6 were 500 nM and 6700 nM, respectively.

With `O=C(N1CCC(n2c(=O)[nH]c3ccccc32)CC1)N1CCN(Cc2ccncc2)CC1`, affinity at Histamine H3 receptor was put at a Ki of 17 nM.

In turn, `O=c1[nH]c2ccccc2n1C1CCN(CC2CCN(Cc3ccncc3)CC2)CC1` came in with a Ki at Histamine H3 receptor of 24 nM.

At Histamine H3 receptor, `O=C(C1CCN(Cc2ccncc2)CC1)N1CCN(c2ccccc2)CC1` gave a Ki of 40 nM.

Consider `O=C(c1ccncc1)N1CCC(C(=O)N2CCC(n3c(=O)[nH]c4ccccc43)CC2)CC1`, for which the inhibition in data set [1] is 11%.

A word on the Ki: it is the equilibrium dissociation constant of an inhibitor or competing ligand from its target. Low readings indicate tighter binding, high ones weaker binding. As a reminder, the IC50 is the concentration at which inhibition is half-maximal. Low readings indicate inhibition by little substance, high ones a need for much substance. For orientation: inhibition means the change of the read-out against control, counted positive when it falls. A low value points to little suppression. In general, AUC refers to concentration integrated over time. Low readings indicate less exposure, high ones more exposure. A word on the hepatocyte CLint: it is the rate of metabolic loss divided by the concentration. Read a high hepatocyte CLint as rapid turnover. By ED50 is commonly meant the dose at which the effect has come halfway, by size or by number of responders.
